Our source for the IC50 values is US20110053925A1, “Hydroxamate-Based Inhibitors of Deacetylases” (Novartis AG, priority 2009, published 2011).

One test concerns the target T1, HDAC-1 (Homo sapiens, UniProt Q13547).
T1 construct: made in house; host or cells: Sf9 or Sf21 insect cells (baculovirus, donor vector pFB-GSTX3)
Nature of the test: HDAC Inhibition Assay (purified GST-HDAC protein). Type of test: biochemical. From the text: The baculovirus donor vector pFB-GSTX3 is used to generate a recombinant baculovirus that can express the HDAC polypeptide. Transfer vectors containing the HDAC coding region are transfected into the DH10Bac cell line (GIBCO) and plated on selective agar plates. Colonies without insertion of the fusion sequence into the viral genome (carried by the bacteria) are blue. Single, white colonies are picked and viral DNAs (bacmid) are isolated from the bacteria by standard plasmid purification procedures. Sf9 cells or Sf21 (American Type Culture Collection) cells are then transfected in […] flasks with the viral DNA using Cellfectin reagent.
Virus-containing media is collected from the transfected cell culture and used for infection to increase its titer. Virus-containing media obtained after two rounds of infection is used for large-scale protein expression. For large-scale protein expression 100 cm^2 round tissue culture plates are seeded with 5×10^7 cells/plate and infected with 1 mL of virus-containing media (at an approximately MOI of 5). After 3 days, the cells are scraped off the plate and centrifuged at 500 rpm for 5 minutes. Cell pellets from 10-20, 100 cm^2 plates, are re-suspended in 50 mL of ice-cold lysis buffer (25 mM tris-HCl, pH 7.5, 2 mM EDTA, 1% NP-40, 1 mM DTT, 1 mM P MSF). The cells are stirred on ice for 15 minutes and then centrifuged at 5,000 rpms for 20 minutes.
The centrifuged cell lysate is loaded onto a 2 mL glutathione-sepharose column (Pharmacia) and is washed thrice with 10 mL of 25 mM tris-HCl, pH 7.5, 2 mM EDTA, 1 mM DTT, 200 mM NaCl. The GST-tagged proteins are then eluted by 10 applications (1 mL each) of 25 mM tris-HCl, pH 7.5, 10 mM reduced-glutathione, 100 mM NaCl, 1 mM DTT, 10% glycerol and stored at −70° C.
HDAC assays with purified GST-HDAC protein are carried out in a final volume of 30 μL containing 15 ng of GST-HDAC protein, 20 mM tris-HCl, pH 7.5, 1 mM MnCl2, 10 mM MgCl2, 1 mM DTT, 3 μg/mL poly(Glu,Tyr) 4:1, 1% DMSO, 2.0 μM ATP (γ-[^33P]-ATP 0.1 μCi). The activity is assayed in the presence or absence of inhibitors. […] Subsequently, […] of the reaction mixture are transferred onto EMMOBILON-PVDF membrane (Millipore) previously soaked for 5 minutes with methanol, rinsed with water, then soaked for 5 minutes with 0.5% H3PO4 and mounted on vacuum manifold with disconnected vacuum source. After spotting all samples, a vacuum is connected and each well rinsed with 200 μL 0.5% H3PO4. Membranes are removed and washed four times on a shaker with 1.0% H3PO4, once with ethanol. Membranes are counted after drying at ambient temperature, mounting in Packard TopCount 96-well frame, and addition of 10 μL/well of MICROSCINT™ (Packard).
• Input: 3×4 μL stopped assay on IMMOBILON membrane, not washed • Background (3 wells): assay with H2O instead of enzyme • Positive control (4 wells): 3% DMSO instead of compound • Bath control (1 well): no reaction mix
In each experiment, the actual inhibition by reference compound is used for normalization of IC50 values to the basis of an average value of the reference inhibitor:
Normalized IC50=measured IC50 average ref. IC50/measured ref. IC50

In the next test the test system is HCT116. Nature of the test: HCT116 IC50. Type of test: cell-based. The note with it: Homo sapiens, HCT-116.

T1 sequence (Q13547 whole entry, species assumed): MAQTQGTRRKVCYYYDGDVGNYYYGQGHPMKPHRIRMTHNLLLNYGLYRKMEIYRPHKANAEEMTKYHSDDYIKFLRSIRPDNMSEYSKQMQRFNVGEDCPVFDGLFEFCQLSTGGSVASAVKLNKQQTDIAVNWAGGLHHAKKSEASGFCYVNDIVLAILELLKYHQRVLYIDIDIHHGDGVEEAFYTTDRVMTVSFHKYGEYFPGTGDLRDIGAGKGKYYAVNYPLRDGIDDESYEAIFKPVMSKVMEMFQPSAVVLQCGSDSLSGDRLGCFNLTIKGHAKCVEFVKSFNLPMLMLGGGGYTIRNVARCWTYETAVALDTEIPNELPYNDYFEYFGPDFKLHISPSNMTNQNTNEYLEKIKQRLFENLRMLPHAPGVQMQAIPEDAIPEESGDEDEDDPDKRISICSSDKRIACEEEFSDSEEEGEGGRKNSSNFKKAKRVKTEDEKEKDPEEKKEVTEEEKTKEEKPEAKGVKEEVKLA

As to `Cc1[nH]c2ccccc2c1[C@H]1CCCN(Cc2ccc(/C=C/C(=O)NO)cc2)C1` [Compound 3, (E)-N-Hydroxy-3-{4-[(R)-3-(2-methyl-1H-indol-3-yl)-piperidin-1-ylmethyl]-phenyl}-acrylamide], the figures for the IC50 against HDAC-1 and with HCT116 were 6 nM and 12 nM, respectively.

Consider `O=C(/C=C/c1ccc(CN2CCCC(c3c[nH]c4ccccc34)C2)cc1)NO` (centres unmarked) [Compound 2, (E)-N-Hydroxy-3-{4-[3-(1H-indol-3-yl)-piperidin-1-ylmethyl]-phenyl}-acrylamide], for which the half-maximal inhibitory concentration (IC50) against HDAC-1 was found to be 9 nM; in the test with HCT116, 32 nM.

For the molecule `CC(C)(C)c1[nH]c2ccccc2c1C1CCCN(Cc2ccc(/C=C/C(=O)NO)cc2)C1` (centres unmarked) [Compound 6, (E)-3-{4-[3-(2-tert-Butyl-1H-indol-3-yl)-piperidin-1-ylmethyl]-phenyl}-N-hydroxy-acrylamide], the concentration for half-maximal inhibition (IC50) is 3 nM on HDAC-1 and 0.3 nM in the test with HCT116.

`O=C(/C=C/c1ccc(CN2CCCC(c3c(C(=O)N4CCOCC4)[nH]c4ccccc34)C2)c(F)c1)NO` (centres unmarked) [Compound 19, (E)-3-(3-Fluoro-4-{3-[2-(morpholine-4-carbonyl)-1H-indol-3-yl]-piperidin-1-ylmethyl}-phenyl)-N-hydroxy-acrylamide]: the IC50 on HDAC-1 is 22 nM; in the test on HCT116, 500 nM.

As to `CC(C)c1[nH]c2ccccc2c1C1CCCN(Cc2ccc(CCC(=O)NO)cc2F)C1` (centres unmarked) [Compound 21, 3-{3-Fluoro-4-[3-(2-isopropyl-1H-indol-3-yl)-piperidin-1-ylmethyl]-phenyl}-N-hydroxy-propionamide], the values for the IC50 at HDAC-1 and with HCT116 were 6 nM and 21 nM, respectively.

As for `CC(C)(O)c1[nH]c2ccccc2c1C1CCCN(Cc2ccc(/C=C/C(=O)NO)cc2F)C1` (centres unmarked) [Compound 13, (E)-3-(3-Fluoro-4-{3-[2-(1-hydroxy-1-methyl-ethyl)-1H-indol-3-yl]-piperidin-1-ylmethyl}-phenyl)-N-hydroxy-acrylamide], the half-inhibitory concentration (IC50) against HDAC-1 was 6 nM; in the test with HCT116, 2.8 nM.

Regarding `Cc1[nH]c2ccc(N3CCOCC3)cc2c1C1CCCN(Cc2ccc(/C=C/C(=O)NO)cc2F)C1` (centres unmarked) [Compound 4, (E)-3-{3-Fluoro-4-[3-(2-methyl-5-morpholin-4-yl-1H-indol-3-yl)-piperidin-1-ylmethyl]-phenyl}-N-hydroxy-acrylamide], the IC50 stood at 11 nM against HDAC-1 and 13 nM in the test on HCT116.

For `CC(C)(C)c1[nH]c2ccccc2c1C1=CCCN(Cc2ccc(/C=C/C(=O)NO)cc2)C1` [Compound 7, (E)-3-{4-[5-(2-tert-Butyl-1H-indol-3-yl)-3,6-dihydro-2H-pyridin-1-ylmethyl]-phenyl}-N-hydroxy-acrylamide], the IC50 against HDAC-1 came out at 9 nM; with HCT116 it was 12 nM.

Consider `C=C(C)c1[nH]c2ccccc2c1C1CCCN(Cc2ccc(/C=C/C(=O)NO)cc2F)C1` (centres unmarked) [Compound 14, (E)-3-{3-Fluoro-4-[3-(2-isopropenyl-1H-indol-3-yl)-piperidin-1-ylmethyl]-phenyl}-N-hydroxy-acrylamide], for which the IC50 on HDAC-1 was 7 nM; in the test on HCT116, 6 nM.

As to `CCOC(=O)c1[nH]c2ccccc2c1C1CCCN(Cc2ccc(/C=C/C(=O)NO)cc2F)C1` (centres unmarked) [Compound 17, 3-{1-[2-Fluoro-4-((E)-2-hydroxycarbamoyl-vinyl)-benzyl]-piperidin-3-yl}-1H-indole-2-carboxylic acid ethyl ester], the results for the IC50 against HDAC-1 and in the test with HCT116 were 44 nM and 14 nM, respectively.

In the case of `O=C(/C=C/c1ccc(CN2CCOC(c3cc(-c4ccccc4)no3)C2)cc1)NO` (centres unmarked) [Compound 24, (E)-N-Hydroxy-3-{4-[2-(3-phenyl-isoxazol-5-yl)-morpholin-4-ylmethyl]-phenyl}-acrylamide], the IC50 at HDAC-1 came to 32 nM; with HCT116, 470 nM.

For `O=C(/C=C/c1ccc(CN2CCCC(c3c(C(=O)NO)[nH]c4ccccc34)C2)c(F)c1)NO` (centres unmarked) [Compound 18, 3-{1-[2-Fluoro-4-((E)-2-hydroxycarbamoyl-vinyl)-benzyl]-piperidin-3-yl}-1H-indole-2-carboxylic acid hydroxyamide], the IC50 against HDAC-1 came out at 31 nM; in the test with HCT116, 37 nM.

With `CC(C)(C)c1[nH]c2ccccc2c1C1CCCN(Cc2ccc(/C=C/C(=O)NO)cc2Cl)C1` (centres unmarked) [Compound 12, (E)-3-{4-[3-(2-tert-Butyl-1H-indol-3-yl)-piperidin-1-ylmethyl]-3-chloro-phenyl}-N-hydroxy-acrylamide], the IC50 at HDAC-1 stood at 19 nM; with HCT116 it was 5 nM.
